The values below are quoted from earlier work in patent publication US7815920B2, “Method of preparing an antigen-containing formulation” (Allergy Therapeutics (UK) Ltd, priority 1998, dated 2010).

Settings in the first data set: not given
In the case of `NCCCC[C@H](N)C(=O)O` [lysine], the “solubility in water (in words)” value is listed as “quite soluble in water”.

In the case of `N[C@@H](CS)C(=O)O` [cysteine], the “solubility in water (in words)” value is “quite soluble in water”.

The data set is the same for the next values; noted with them: at 25° C.
Turning to `NCCCC[C@H](N)C(=O)O` [lysine], the “Water Solubility” value was “very”.

Regarding `NC(=O)C[C@H](N)C(=O)O` [asparagine], the “Water Solubility” value was 3.5 g/100 ml H2O.

`CSCC[C@H](N)C(=O)O` [methionine]: the “Water Solubility” value was 3.4 g/100 ml H2O.

Take `CC(C)[C@H](N)C(=O)O` [valine]: the “Water Solubility” value is recorded as 8.9 g/100 ml H2O.

Turning to `N[C@@H](CS)C(=O)O` [cysteine], the “Water Solubility” value is on record as “very”.

As to `CC[C@H](C)[C@H](N)C(=O)O` [isoleucine], the “Water Solubility” value is reported as 4.1 g/100 ml H2O.

Regarding `N[C@@H](Cc1c[nH]c2ccccc12)C(=O)O` [tryptophan], the “Water Solubility” value is 1.1 g/100 ml H2O.

In the case of `C[C@H](N)C(=O)O` [alanine], the “Water Solubility” value is 16.7 g/100 ml H2O.

Turning to `NC(=O)CC[C@H](N)C(=O)O` [glutamine], the “Water Solubility” value is on record as 3.7 g/100 ml H2O.

As to `N[C@@H](Cc1ccccc1)C(=O)O` [phenylalanine], the “Water Solubility” value is listed as 3.0 g/100 ml H2O.

Consider `N[C@@H](Cc1c[nH]cn1)C(=O)O` [histidine], for which the “Water Solubility” value is reported as 4.2 g/100 ml H2O.

Consider `CC(C)C[C@H](N)C(=O)O` [leucine], for which the “Water Solubility” value was 2.4 g/100 ml H2O.
